Read-outs that look alike come from different tables or passages of the source. Bridge positions count the residues as written; N and C are the ends. Square brackets hold non-standard residues; d marks the D form. Peptide text beside a SMILES is read from it. Orn = NCCC[C@H](N)C(=O)O
Target: T1, human MC4-R (Homo sapiens, UniProt P32245)
T1 construct: expressed in transfected cells; host or cells: HEK293 T-REx (tetracycline-regulated, Invitrogen); cell line from Palatin Technologies with license from the University of Michigan
T1 sequence (P32245 whole entry): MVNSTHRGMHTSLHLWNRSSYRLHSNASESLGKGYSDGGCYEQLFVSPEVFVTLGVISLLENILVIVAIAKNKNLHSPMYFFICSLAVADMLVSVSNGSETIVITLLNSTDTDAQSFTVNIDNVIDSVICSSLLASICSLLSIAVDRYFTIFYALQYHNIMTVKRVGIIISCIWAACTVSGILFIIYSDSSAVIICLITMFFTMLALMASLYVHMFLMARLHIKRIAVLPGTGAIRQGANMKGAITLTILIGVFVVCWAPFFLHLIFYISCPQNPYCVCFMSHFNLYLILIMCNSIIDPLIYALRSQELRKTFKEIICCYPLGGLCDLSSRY
Assay: cAMP functional assay in HEK-293 T-REx cells expressing human MC4-R, induced with doxycycline 0.1 ng/mL (low density)
Type: cell-based
Conditions: for Emax: HEK293-T-REx
From the text: A HEK293 cell line transfected with human MC4-R (from Palatin Technologies, US, with license from the University of Michigan) was used. The human MC4-R was introduced to HEK293 by using the T-REx™ System, Invitrogen. The T-REx™ System employs a tetracycline-regulated mammalian expression system that uses regulatory elements from the E. coli Tn10-encoded tetracycline (Tet) resistance operon. By use of the T-REx™ System, expression of the gene of interest, the human MC4-R gene, is repressed in the absence of tetracycline or doxycycline and induced in the presence of tetracycline or doxycycline (see T-REx™ System Manual, published by Invitrogen).
Cells were then counted and volume was adjusted to 5×10^4 cells per 200 μL.
The cells were then dispensed into 96-well plates (BD 353916) in 198 μL (about 5×10^4) cells/well and incubated for 10 minutes at 37° C. The compound to be tested was diluted with DMSO to a final concentration of 1 mM. Serial dilution was prepared in polypropylene removable 12-well library tube strips (VWR cat #83009-682). 120 μL of the 1 mM compound stock was pipetted in the second column on the plate.
2 μL of the standard, [Nle^4, D-Phe^7]alpha-Melanocyte Stimulating Hormone (NDP-α-MSH), or compound was added to the 96-well plate using the Janus robotic system. All assay samples were run in duplicate (i.e. each sample was in two low dox and two high dox plates, respectively). The plates were gently shaken and incubated for 15 minutes at 37° C. The reaction was stopped by adding 15 μL of lysis buffer per well and the plates were shakened for 30 minutes at room temperature.
Agonist stimulation of the MC4-R activates adenylate cyclase, which is an enzyme that catalyses the formation 3′,5′-cyclic adenosine monophosphate (cAMP) from adenosine triphosphate (ATP). […] Fluoresence ratios were then calculated as described in the CisBio HTRF kit, with GraphPad Prism software used to plot the change in fluorescence percent values versus cAMP concentration using the variable slope dose response curve and, based on calculated cAMP concentrations, to determine EC50 and Emax values. […]

[1] = maximal cAMP stimulation, NDP-α-MSH = 100%, doxycycline 0.1 ng/mL, averages of all comparable assays, read-out: Emax
[2] = human MC4-R cAMP assay, doxycycline 0.1 ng/mL, averages of all comparable assays, read-out: Ec50

| SMILES | Emax [%] | Emax [1] [%] | EC50 [2] [nM] | EC50 [nM] |
| --- | --- | --- | --- | --- |
| CCCC[C@H](NC(C)=O)C(=O)N[C@H]1CC(=O)NCCCC[C@@H](C(=O)O)NC(=O)[C@H](Cc2c[nH]c3ccccc23)NC(=O)[C@H](CCCNC(=N)N)NC(=O)[C@@H](Cc2ccccc2)NC(=O)[C@H](Cc2c[nH]cn2)NC1=O [Ac-Nle-cyclo(Asp-His-D-Phe-Arg-Trp-Lys)-OH, reference compound] | 81 |  |  |  |
| CC(=O)N[C@@H](CCCNC(=N)N)C(=O)N[C@H]1CCC(=O)NCCC[C@@H](C(=O)O)NC(=O)[C@H](Cc2c[nH]c3ccccc23)NC(=O)[C@H](CCCNC(=N)N)NC(=O)[C@@H](Cc2ccccc2)NC(=O)[C@H](Cc2c[nH]cn2)NC1=O [No. 3, Ac-Arg-cyclo(Glu-His-D-Phe-Arg-Trp-Orn)-OH] (Ac-REH[dF]RW[Orn]-OH; lactam 2-7) |  | 83 | 0.7 |  |
| CC(=O)N[C@@H](CCCNC(=N)N)C(=O)N[C@H]1CCC(=O)NCCC[C@@H](C(=O)O)NC(=O)[C@H](Cc2c[nH]c3ccccc23)NC(=O)[C@H](CCCNC(=N)N)NC(=O)[C@@H](Cc2ccccc2)NC(=O)[C@H](CCN)NC1=O [No. 5, Ac-Arg-cyclo(Glu-Dab-D-Phe-Arg-Trp-Orn)-OH] |  | 94 | 2 |  |
| CC(=O)N[C@@H](CCCNC(=N)N)C(=O)N[C@H]1CCC(=O)NCCC[C@@H](C(=O)O)NC(=O)[C@H](Cc2c[nH]c3ccccc23)NC(=O)[C@H](CCCNC(=N)N)NC(=O)[C@@H](Cc2ccccc2)NC(=O)[C@H](CCCN)NC1=O [No. 7, Ac-Arg-cyclo(GIu-Orn-D-Phe-Arg-Trp-Orn)-OH] |  | 92 | 4 |  |
| CC(=O)N[C@@H](CCCNC(=N)N)C(=O)N[C@H]1CCC(=O)NCCC[C@@H](C(=O)O)NC(=O)[C@H](Cc2c[nH]c3ccccc23)NC(=O)[C@H](CCCNC(=N)N)NC(=O)[C@@H](Cc2ccccc2)NC(=O)[C@H](CCCNC(=N)N)NC1=O [No. 9, Ac-Arg-cyclo(Glu-Arg-D-Phe-Arg-Trp-Orn)-OH] |  | 82 | 2 |  |
| CC(=O)N[C@@H](CCCNC(=N)N)C(=O)N[C@H]1CCC(=O)NCCC[C@@H](C(N)=O)NC(=O)[C@H](Cc2c[nH]c3ccccc23)NC(=O)[C@H](CCCNC(=N)N)NC(=O)[C@@H](Cc2ccccc2)NC(=O)[C@H](CCCNC(=N)N)NC1=O [No. 10, Ac-Arg-cyclo(Glu-Arg-D-Phe-Arg-Trp-Orn)-NH2] |  | 98 |  |  |
| CC(=O)N[C@@H](CCCNC(=N)N)C(=O)N[C@H]1CCC(=O)NCCC[C@@H](C(=O)O)NC(=O)[C@H](Cc2c[nH]c3ccccc23)NC(=O)[C@H](CCCNC(=N)N)NC(=O)[C@@H](Cc2ccccc2)NC(=O)[C@H](CCC(N)=O)NC1=O [No. 11, Ac-Arg-cyclo(Glu-Gln-D-Phe-Arg-Trp-Orn)-OH] |  | 81 |  |  |
| CC(=O)N[C@@H](CCCNC(=N)N)C(=O)N[C@H]1CCC(=O)NCCC[C@@H](C(N)=O)NC(=O)[C@H](Cc2c[nH]c3ccccc23)NC(=O)[C@H](CCCNC(=N)N)NC(=O)[C@@H](Cc2ccccc2)NC(=O)[C@@H]2C[C@@H](O)CN2C1=O [No. 14, Ac-Arg-cyclo(Glu-Hyp-D-Phe-Arg-Trp-Orn)-NH2] |  | 104 |  |  |
| CC(=O)N[C@@H](CCCNC(=N)N)C(=O)N[C@H]1CCC(=O)NCCC[C@@H](C(N)=O)NC(=O)[C@H](Cc2c[nH]c3ccccc23)NC(=O)[C@H](CCCNC(=N)N)NC(=O)[C@@H](Cc2ccccc2)NC(=O)[C@H](CCCNC(N)=O)NC1=O [No. 15, Ac-Arg-cyclo(Glu-Cit-D-Phe-Arg-Trp-Orn)-NH2] |  | 87 |  |  |
| CC(=O)N[C@@H](CCCNC(=N)N)C(=O)N[C@H]1CCC(=O)NCCC[C@@H](C(N)=O)NC(=O)[C@H](Cc2c[nH]c3ccccc23)NC(=O)[C@H](CCCNC(=N)N)NC(=O)[C@@H](Cc2ccccc2)NC(=O)[C@H](CCCCN)NC1=O [No. 16, Ac-Arg-cyclo(Glu-Lys-D-Phe-Arg-Trp-Orn)-NH2] (Ac-REK[dF]RW[Orn]-NH2; lactam 2-7) |  | 104 | 2 |  |
| CC(=O)NCC[C@@H]1NC(=O)[C@@H](NC(=O)[C@H](CCCNC(=N)N)NC(C)=O)CCC(=O)NCCC[C@@H](C(N)=O)NC(=O)[C@H](Cc2c[nH]c3ccccc23)NC(=O)[C@H](CCCNC(=N)N)NC(=O)[C@@H](Cc2ccccc2)NC1=O [No. 18, Ac-Arg-cyclo(Glu-Dab(Acetyl)-D-Phe-Arg-Trp-Orn)-NH2] |  | 75 |  |  |
| CC(=O)N[C@@H](CCCNC(=N)N)C(=O)N[C@H]1CCC(=O)NCCC[C@@H](C(=O)NC2CC2)NC(=O)[C@H](Cc2c[nH]c3ccccc23)NC(=O)[C@H](CCCNC(=N)N)NC(=O)[C@@H](Cc2ccccc2)NC(=O)[C@H](CCC(N)=O)NC1=O [No. 19, Ac-Arg-cyclo(Glu-Gln-D-Phe-Arg-Trp-Orn)-NH-cycProp] |  | 91 | 1 |  |
| CC(=O)N[C@@H](CCCNC(=N)N)C(=O)N[C@H]1CCC(=O)NCCC[C@@H](C(=O)O)NC(=O)[C@H](Cc2c[nH]c3ccccc23)NC(=O)[C@H](CCCNC(=N)N)NC(=O)[C@@H](Cc2ccccc2)NC(=O)[C@H](CC(N)=O)NC1=O [No. 20, Ac-Arg-cyclo(Glu-Asn-D-Phe-Arg-Trp-Orn)-OH] |  | 76 | 12 |  |
| CC(=O)N[C@H]1CCC(=O)NCCC[C@@H](C(N)=O)NC(=O)[C@H](Cc2c[nH]c3ccccc23)NC(=O)[C@H](CCCNC(=N)N)NC(=O)[C@@H](Cc2ccccc2)NC(=O)[C@H](CCC(N)=O)NC1=O [No. 21, Ac-cyclo(Glu-Gln-D-Phe-Arg-Trp-Orn)-NH2] (Ac-EQ[dF]RW[Orn]-NH2; lactam 1-6) |  | 49 | 26 |  |
| CC(=O)N[C@H](CCCNC(=N)N)C(=O)N[C@H]1CCCNC(=O)CC[C@@H](C(N)=O)NC(=O)[C@H](Cc2c[nH]c3ccccc23)NC(=O)[C@H](CCCNC(=N)N)NC(=O)[C@@H](Cc2ccccc2)NC(=O)[C@H](Cc2c[nH]cn2)NC1=O [No. 39, Ac-D-Arg-cyclo(Orn-His-D-Phe-Arg-Trp-Glu)-NH2] |  | 103 | 0.2 |  |
| CC(=O)N[C@@H](CCCNC(=N)N)C(=O)N[C@H]1CCCNC(=O)CC[C@@H](C(=O)O)NC(=O)[C@H](Cc2c[nH]c3ccccc23)NC(=O)[C@H](CCCNC(=N)N)NC(=O)[C@@H](Cc2ccccc2)NC(=O)[C@H](CCN)NC1=O [No. 42, Ac-Arg-cyclo(Orn-Dab-D-Phe-Arg-Trp-Glu)-OH] |  | 100 |  |  |
| CC(=O)N[C@@H](CCCNC(=N)N)C(=O)N[C@H]1CCCNC(=O)CC[C@@H](C(N)=O)NC(=O)[C@H](Cc2c[nH]c3ccccc23)NC(=O)[C@H](CCCNC(=N)N)NC(=O)[C@@H](Cc2ccccc2)NC(=O)[C@H](CC(N)=O)NC1=O [No. 46, Ac-Arg-cyclo(Orn-Asn-D-Phe-Arg-Trp-Glu)-NH2] |  | 88 |  |  |
| CC(=O)N[C@@H](CCCNC(=N)N)C(=O)N[C@H]1CC(=O)NCCCC[C@@H](C(N)=O)NC(=O)[C@H](Cc2c[nH]c3ccccc23)NC(=O)[C@H](CCCNC(=N)N)NC(=O)[C@@H](Cc2ccccc2)NC(=O)[C@H](CCN)NC1=O [reference compound] |  | 91 |  |  |
| CC(=O)N[C@@H](CCCNC(=N)N)C(=O)N[C@H]1CC(=O)NCCCC[C@@H](C(=O)O)NC(=O)[C@H](Cc2c[nH]c3ccccc23)NC(=O)[C@H](CCCNC(=N)N)NC(=O)[C@@H](Cc2ccccc2)NC(=O)[C@H](CCCNC(=N)N)NC1=O [reference compound] |  | 75 |  |  |
| CC(=O)N[C@@H](CCCNC(=N)N)C(=O)N[C@H]1CC(=O)NCCCC[C@@H](C(N)=O)NC(=O)[C@H](Cc2c[nH]c3ccccc23)NC(=O)[C@H](CCCNC(=N)N)NC(=O)[C@@H](Cc2ccccc2)NC(=O)[C@H](CCCNC(=N)N)NC1=O [reference compound] |  | 68 |  |  |
| CC(=O)N[C@@H](CCCNC(=N)N)C(=O)N[C@H]1CC(=O)NCCCC[C@@H](C(=O)O)NC(=O)[C@H](Cc2c[nH]c3ccccc23)NC(=O)[C@H](CCCNC(=N)N)NC(=O)[C@@H](Cc2ccccc2)NC(=O)[C@H](CCC(N)=O)NC1=O [reference compound] |  | 80 | 19 |  |
| CC(=O)N[C@@H](CCCNC(=N)N)C(=O)N[C@H]1CC(=O)NCCCC[C@@H](C(N)=O)NC(=O)[C@H](Cc2c[nH]c3ccccc23)NC(=O)[C@H](CCCNC(=N)N)NC(=O)[C@@H](Cc2ccccc2)NC(=O)[C@H](CCC(N)=O)NC1=O [reference compound] |  | 85 |  | 17 |
| CC(=O)N[C@@H](CCCNC(=N)N)C(=O)N[C@H]1CC(=O)NCCCC[C@@H](C(N)=O)NC(=O)[C@H](Cc2c[nH]c3ccccc23)NC(=O)[C@H](CCCNC(=N)N)NC(=O)[C@@H](Cc2ccccc2)NC(=O)[C@@H]2C[C@@H](O)CN2C1=O [reference compound] |  | 39 |  |  |
| CC(=O)N[C@@H](CCCNC(=N)N)C(=O)N[C@H]1CC(=O)NCCCC[C@@H](C(N)=O)NC(=O)[C@H](Cc2c[nH]c3ccccc23)NC(=O)[C@H](CCCNC(=N)N)NC(=O)[C@@H](Cc2ccccc2)NC(=O)[C@H](CCCNC(N)=O)NC1=O [reference compound] |  | 69 |  |  |

— US20120077957A1, “Lactam-Bridged Melanocortin Receptor-Specific Peptides” (PALATIN TECHNOLOGIES, INC., priority 2009, published 2012)
